Laboratory results as given in patent US7612077B2, “Crystalline forms of the anti-cancer compound ZD1839” (Astrazeneca AB, priority 2002, dated 2009).

Experiments:
[1] = stability of the crystalline physical form; format: physicochemical; details: solid crystalline form
[2] = stability in the presence of water / as aqueous suspension; format: physicochemical
Experimental: Form 5 ZD1839 trihydrate is a stable form of the compound of Formula I In particular, Form 5 ZD1839 trihydrate is very stable in the presence of water. For example, when Form 5 ZD1839 trihydrate is prepared as an aqueous suspension the resulting suspension is stable, whereas aqueous suspensions prepared using other forms of the compound of Formula I are prone to convert to Form 5 ZD1839 trihydrate during storage. In the case of aqueous suspensions of the compound of Formula I this can be problematic because the conversion of a less thermodynamically stable form to the Form 5 ZD1839 trihydrate can result in the growth of large crystals of the Form 5 ZD1839 trihydrate, thereby altering the particle size distribution in the suspension. […] Furthermore, if a variable mixture of two such forms of the compound of Formula I were to be present, the dissolution rate and bioavailability of the active compound(s) could be variable as a result of the different characteristics of the two forms.

Compound | stability of crystalline physical form [1] | stability in the presence of water ([2]; in the presence of water) | stability of aqueous suspension ([2]; prepared as an aqueous suspension, during storage)
COc1cc2ncnc(Nc3ccc(F)c(Cl)c3)c2cc1OCCCN1CCOCC1 [Form 1 ZD1839 polymorph, 4-(3′-chloro-4′-fluoroanilino)-7-methoxy-6-(3-morpholinopropoxy)quinazoline] | highly stable |  | 
COc1cc2ncnc(Nc3ccc(F)c(Cl)c3)c2cc1OCCCN1CCOCC1 [Form 2 ZD1839 MeOH solvate, 4-(3′-chloro-4′-fluoroanilino)-7-methoxy-6-(3-morpholinopropoxy)quinazoline hemi-methanolate] | of sufficient stability |  | 
COc1cc2ncnc(Nc3ccc(F)c(Cl)c3)c2cc1OCCCN1CCOCC1 [Form 3 ZD1839 DMSO solvate, 4-(3′-chloro-4′-fluoroanilino)-7-methoxy-6-(3-morpholinopropoxy)quinazoline mono-solvate with dimethyl sulphoxide] | very stable |  | 
COc1cc2ncnc(Nc3ccc(F)c(Cl)c3)c2cc1OCCCN1CCOCC1 [Form 5 ZD1839 trihydrate, 4-(3′-chloro-4′-fluoroanilino)-7-methoxy-6-(3-morpholinopropoxy)quinazoline trihydrate] |  | very stable | stable
